The values that follow come from ChEMBL document CHEMBL4251699, “In Search of the Optimal Macrocyclization Site for Neurotensin” (ACS Med Chem Lett, 2018).

Numbered stars: 1 amine (or outer) side, 2 acyl side, 3 side chain; on linkers, the order of the positions; unused ones are H or OH. Bridge positions count the residues as written; N and C are the ends. Square brackets hold non-standard residues; d marks the D form. Peptide text beside a SMILES is read from it. * marks the point of attachment. X1 = O=C([C@H](Cc1ccc(O)c(CC=[*:3])c1)N[*:1])[*:2]; X3 = C=CCc1cc(C[C@H](N[*:1])C(=O)[*:2])ccc1O; Ser(allyl) = C=CCOC[C@H](N)C(=O)O; AllylGly = C=CC[C@H](N)C(=O)O; X2 = C=CCCCCCCC(=O)*

In one series the target is T1, Neurotensin receptor type 1 (Homo sapiens, UniProt P30989). Description: Agonist activity at GFP10-tagged human NTS1 expressed in CHO-K1 cells assessed as Rluc2-fused beta-arrestin2 recruitment after 20 mins by BRET assay. It is filed as functional, cell-based. On the technique in general: Arrestin recruitment assays detect the binding of arrestin to an activated receptor.
T1 sequence (P30989 whole entry, the tested form may be a part): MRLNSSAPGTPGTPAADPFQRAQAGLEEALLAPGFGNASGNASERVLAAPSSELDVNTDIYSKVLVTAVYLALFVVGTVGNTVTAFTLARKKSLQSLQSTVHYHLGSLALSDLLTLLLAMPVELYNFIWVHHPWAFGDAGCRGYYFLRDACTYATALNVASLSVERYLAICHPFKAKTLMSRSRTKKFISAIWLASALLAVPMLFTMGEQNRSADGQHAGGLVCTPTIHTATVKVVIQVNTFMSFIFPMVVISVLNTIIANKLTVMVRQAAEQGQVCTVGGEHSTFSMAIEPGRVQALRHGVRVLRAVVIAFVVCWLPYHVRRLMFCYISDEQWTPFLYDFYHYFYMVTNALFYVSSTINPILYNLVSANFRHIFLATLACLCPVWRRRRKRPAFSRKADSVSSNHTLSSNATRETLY
As to `CC[C@H](C)[C@H](NC(=O)[C@@H]1Cc2ccc(O)c(c2)CC=CCCCCCCC(=O)N[C@@H](CCCCN)C(=O)N2CCC[C@H]2C(=O)N1)C(=O)N[C@@H](CC(C)C)C(=O)O`, the EC50 (in general, the midpoint of the concentration-response curve) was 1370 nM.

In another series the target is T1, Neurotensin receptor type 1. Nature of the series: Displacement of 125I-[Tyr3]-NT from human NTS1 receptor expressed in CHO-K1 cell membranes after 60 mins by gamma-counting method. (In general: Displacement assays read how much labelled ligand stays bound in the presence of the test substance.)
On to `CC(C)C[C@H](NC(=O)[C@H]1CC=CC[C@H](N)C(=O)N[C@@H](CCCCN)C(=O)N2CCC[C@H]2C(=O)N[C@@H](Cc2ccc(O)cc2)C(=O)N1)C(=O)O`, for which the concentration for half-maximal inhibition (IC50) (in general, the concentration that gives 50% inhibition) was found to be 14.3 µM.

Turning to `CC(C)C[C@H](NC(=O)[C@@H]1COCC=CCc2cc(ccc2O)C[C@H](NC(=O)[C@@H]2CCCN2C(=O)[C@@H](N)CCCCN)C(=O)N1)C(=O)O`, the IC50 amounted to 29.8 µM.

Molecule `CC(C)C[C@H](NC(=O)[C@@H]1CC=CC[C@@H](N)C(=O)N[C@@H](CCCCN)C(=O)N2CCC[C@H]2C(=O)N[C@@H](Cc2ccc(O)cc2)C(=O)N1)C(=O)O` registered an IC50 of 10 µM.

In turn, `CC[C@H](C)[C@H](NC(=O)[C@@H]1Cc2ccc(O)c(c2)CC=CCCCCCCC(=O)N[C@@H](CCCCN)C(=O)N2CCC[C@H]2C(=O)N1)C(=O)N[C@@H](CC(C)C)C(=O)O` registered an IC50 of 0.4 µM.

`CC(C)C[C@H](NC(=O)[C@H]1CC=CC[C@@H](N)C(=O)N[C@@H](CCCCN)C(=O)N2CCC[C@H]2C(=O)N[C@@H](Cc2ccc(O)cc2)C(=O)N1)C(=O)O` had an IC50 of 19.8 µM.

`CC(C)C[C@H](NC(=O)[C@@H]1CC=CC[C@H](N)C(=O)N[C@@H](CCCCN)C(=O)N2CCC[C@H]2C(=O)N[C@@H](Cc2ccc(O)cc2)C(=O)N1)C(=O)O`: the IC50 is 17 µM.

Molecule `CC[C@H](C)[C@@H]1NC(=O)[C@H](Cc2ccc(O)cc2)NC(=O)[C@@H]2CCCN2C(=O)[C@@H](NC(=O)[C@@H](N)CCCCN)CC=CC[C@@H](C(=O)O)NC1=O` (H-K[AllylGly]PYI[AllylGly]-OH; staple 2-6) registered an IC50 greater than 100 µM.

`CC[C@H](C)[C@H](NC(=O)[C@@H]1Cc2ccc(O)c(c2)CC=CC[C@H](NC(=O)[C@@H](N)CCCCN)C(=O)N2CCC[C@H]2C(=O)N1)C(=O)N[C@@H](CC(C)C)C(=O)O` (H-K[AllylGly]P[X1]IL-OH; staple 2-4) showed an IC50 of 7.6 µM.

In turn, `CC[C@H](C)[C@H](NC(=O)[C@@H]1Cc2ccc(O)c(c2)CC=CCOC[C@H](NC(=O)[C@@H](N)CCCCN)C(=O)N2CCC[C@H]2C(=O)N1)C(=O)N[C@@H](CC(C)C)C(=O)O` (H-K[Ser(allyl)]P[X1]IL-OH; staple 2-4) gave an IC50 of 10.3 µM.

In turn, `C=CC[C@H](NC(=O)[C@H](Cc1ccc(O)cc1)NC(=O)[C@@H]1CCCN1C(=O)[C@H](CCCCN)NC(=O)[C@@H](N)CC=C)C(=O)N[C@@H](CC(C)C)C(=O)O` (H-[AllylGly]KPY[AllylGly]L-OH) showed a concentration for half-maximal inhibition (IC50) of 1.7 µM.

`CC(C)C[C@H](NC(=O)[C@@H]1COCC=CCOC[C@H](N)C(=O)N[C@@H](CCCCN)C(=O)N2CCC[C@H]2C(=O)N[C@@H](Cc2ccc(O)cc2)C(=O)N1)C(=O)O` (H-[Ser(allyl)]KPY[Ser(allyl)]L-OH; staple 1-5): the IC50 was greater than 100 µM.

The molecule `C=CCCCCCCC(=O)N[C@@H](CCCCN)C(=O)N1CCC[C@H]1C(=O)N[C@@H](Cc1ccc(O)c(CC=C)c1)C(=O)N[C@H](C(=O)N[C@@H](CC(C)C)C(=O)O)[C@@H](C)CC` (X2-KP[X3]IL-OH) had an IC50 of 1.4 µM.

Tested on in the next series: not listed separately
Nature of the series: Half life in rat plasma by UPLC-MS analysis. Format: ADME, cell-free.
On to `CC[C@H](C)[C@H](NC(=O)[C@H](Cc1ccc(O)cc1)NC(=O)[C@@H]1CCCN1C(=O)[C@H](CCCNC(=N)N)NC(=O)[C@@H](N)CCCNC(=N)N)C(=O)N[C@@H](CC(C)C)C(=O)O`, for which the half-life (in general, the time needed for the level to fall by half in the phase considered) came out at 3 min.

Turning to `CC[C@H](C)[C@H](NC(=O)[C@@H]1Cc2ccc(O)c(c2)CC=CCCCCCCC(=O)N[C@@H](CCCCN)C(=O)N2CCC[C@H]2C(=O)N1)C(=O)N[C@@H](CC(C)C)C(=O)O`, the half-life was 720 min.
